# Columns and labels:
# 5HT-uptake = target: T1, 5HT-uptake (Rattus norvegicus, UniProt P31652); assay: biochemical; conditions: for inhibition at 10 µM: read-out: 5HT-uptake [10 μM], % inhibition
# T1 construct: synaptosomes were freshly isolated from areas of rats' brains
# NA-uptake = NA-uptake (Rattus norvegicus, UniProt Q63380); assay: biochemical; conditions: for inhibition at 10 µM: read-out: NA-uptake [10 μM], % inhibition
# Chain of NA-uptake (Q63380 1-617): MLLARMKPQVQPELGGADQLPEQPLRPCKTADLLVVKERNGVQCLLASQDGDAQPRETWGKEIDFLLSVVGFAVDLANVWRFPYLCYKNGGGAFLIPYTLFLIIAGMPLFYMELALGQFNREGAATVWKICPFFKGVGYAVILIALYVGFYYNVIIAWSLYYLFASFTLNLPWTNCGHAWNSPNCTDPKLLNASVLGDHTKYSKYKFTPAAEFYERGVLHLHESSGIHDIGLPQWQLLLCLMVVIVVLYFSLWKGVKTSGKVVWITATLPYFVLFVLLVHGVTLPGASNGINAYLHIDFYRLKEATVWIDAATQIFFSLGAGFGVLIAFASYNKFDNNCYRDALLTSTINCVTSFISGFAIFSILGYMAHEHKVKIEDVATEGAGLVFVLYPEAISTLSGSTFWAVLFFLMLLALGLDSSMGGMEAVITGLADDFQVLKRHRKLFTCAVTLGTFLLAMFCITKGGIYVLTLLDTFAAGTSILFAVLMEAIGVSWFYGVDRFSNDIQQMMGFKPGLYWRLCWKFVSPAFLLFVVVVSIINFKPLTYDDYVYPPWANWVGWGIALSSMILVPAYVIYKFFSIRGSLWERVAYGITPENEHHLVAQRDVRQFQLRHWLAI
# T1 sequence (P31652 whole entry): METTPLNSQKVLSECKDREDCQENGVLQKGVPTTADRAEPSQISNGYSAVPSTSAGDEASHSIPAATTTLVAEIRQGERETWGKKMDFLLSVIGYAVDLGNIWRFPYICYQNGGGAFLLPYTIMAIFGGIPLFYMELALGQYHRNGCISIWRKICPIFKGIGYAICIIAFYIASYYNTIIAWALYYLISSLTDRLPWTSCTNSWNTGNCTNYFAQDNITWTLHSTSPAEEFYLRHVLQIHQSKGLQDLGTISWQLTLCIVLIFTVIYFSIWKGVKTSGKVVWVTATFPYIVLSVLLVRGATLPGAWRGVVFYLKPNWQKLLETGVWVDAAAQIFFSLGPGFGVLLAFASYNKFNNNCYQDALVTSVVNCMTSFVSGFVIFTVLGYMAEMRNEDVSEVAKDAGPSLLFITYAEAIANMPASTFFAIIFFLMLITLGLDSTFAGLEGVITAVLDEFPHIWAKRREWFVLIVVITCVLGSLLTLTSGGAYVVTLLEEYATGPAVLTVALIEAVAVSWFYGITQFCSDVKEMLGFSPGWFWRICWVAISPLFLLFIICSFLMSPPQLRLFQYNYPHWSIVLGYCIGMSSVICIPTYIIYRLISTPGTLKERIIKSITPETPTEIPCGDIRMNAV
smiles,measurement,setting,value
"CN(C)C1(Cc2ccc(Cl)cc2)CCC(NC(=O)CCC(=O)NC2CCCC2)CC1 (centres unmarked) [Example 44, N-[4-(4-chloro-benzyl)-4-dimethylamino-cyclohexyl]-Nt-cyclopentyl-succinamide]","5HT-uptake [10 μM], % inhibition",5HT-uptake,94%
same,"NA-uptake [10 μM], % inhibition",NA-uptake,84%
"Cc1cccc(CC2(N(C)C)CCC(NC(=O)CCC(=O)N3CCN(C(=O)c4cccc(Cl)c4)CC3)CC2)c1 (centres unmarked) [Example 107, 4-[4-(3-chloro-benzoyl)-piperazin-1-yl]-N-[4-dimethylamino-4-(3-methyl-benzyl)-cyclohexyl]-4-oxo-butyramide]",inhibition at 10 µM,5HT-uptake,95%
same,inhibition at 10 µM,NA-uptake,106%
"Cc1cccc(CC2(N(C)C)CCC(NC(=O)CCC(=O)N3CCC(C)CC3)CC2)c1 (centres unmarked) [Example 20, N-[4-dimethylamino-4-(3-methyl-benzyl)-cyclohexyl]-4-(4-methyl-piperidin-1-yl)-4-oxo-butyramide]",inhibition at 10 µM,5HT-uptake,92%
same,inhibition at 10 µM,NA-uptake,90%
"COc1ccc(CNC(=O)CCC(=O)NC2CCC(Cc3cccc(C)c3)(N(C)C)CC2)cc1 (centres unmarked) [Example 85, N-[4-dimethylamino-4-(3-methyl-benzyl)-cyclohexyl]-N′-(4-methoxy-benzyl)-succinamide]",inhibition at 10 µM,5HT-uptake,94%
same,inhibition at 10 µM,NA-uptake,100%
"CCOC(=O)C(C)NC(=O)CCC(=O)NC1CCC(Cc2ccc(Cl)cc2)(N(C)C)CC1 (centres unmarked) [Example 7, 2-{3-[4-(4-chloro-benzyl)-4-dimethylamino-cyclohexylcarbamoyl]-propionylamino}-propanoic acid ethylester]",inhibition at 10 µM,5HT-uptake,93%
same,inhibition at 10 µM,NA-uptake,91%
"COc1cccc(N2CCN(C(=O)CCC(=O)NC3CCC(Cc4cccc(C)c4)(N(C)C)CC3)CC2)c1 (centres unmarked) [Example 48, N-[4-dimethylamino-4-(3-methyl-benzyl)-cyclohexyl]-4-[4-(3-methoxy-phenyl)-piperazin-1-yl]-4-oxo-butyramide]",inhibition at 10 µM,5HT-uptake,94%
same,inhibition at 10 µM,NA-uptake,97%
"C=CCOc1ccc(CN2CCN(C(=O)CCC(=O)NC3CCC(Cc4cccc(C)c4)(N(C)C)CC3)CC2)cc1 (centres unmarked) [Example 89, 4-[4-(4-allyloxy-benzyl)-piperazin-1-yl]-N-[4-dimethylamino-4-(3-methyl-benzyl)-cyclohexyl]-4-oxo-butyramide]",inhibition at 10 µM,5HT-uptake,94%
same,inhibition at 10 µM,NA-uptake,98%
"COCC(Cc1ccccc1)NC(=O)CCC(=O)NC1CCC(Cc2cccc(Cl)c2)(N(C)C)CC1 (centres unmarked) [Example 123, N-[4-(3-chloro-benzyl)-4-dimethylamino-cyclohexyl]-N′-(1-methoxymethyl-2-phenyl-ethyl)-succinamide]",inhibition at 10 µM,5HT-uptake,92%
same,inhibition at 10 µM,NA-uptake,99%
"COc1ccc(F)c(CN2CCN(C(=O)CCCC(=O)NC3CCC(Cc4ccccc4)(N(C)C)CC3)CC2)c1 (centres unmarked) [Example 25, 5-[4-(2-fluoro-5-methoxy-benzyl)-piperazin-1-yl]-5-oxo-valeric acid (4-benzyl-4-dimethylamino-cyclohexyl)-amide]",inhibition at 10 µM,5HT-uptake,97%
same,inhibition at 10 µM,NA-uptake,95%
"COc1ccc(NC(=O)CCC(=O)NC2CCC(Cc3cccc(C)c3)(N(C)C)CC2)cc1 (centres unmarked) [Example 75, N-[4-dimethylamino-4-(3-methyl-benzyl)-cyclohexyl]-N′-(4-methoxy-phenyl)-succinamide]",inhibition at 10 µM,5HT-uptake,97%
same,inhibition at 10 µM,NA-uptake,99%
"Cc1ccc(CC2(N(C)C)CCC(NC(=O)CCC(=O)N3CCN(c4ccccc4C)CC3)CC2)cc1 (centres unmarked) [Example 94, N-[4-dimethylamino-4-(4-methyl-benzyl)-cyclohexyl]-4-oxo-4-(4-o-tolyl-piperazin-1-yl)-butyramide]",inhibition at 10 µM,5HT-uptake,92%
same,inhibition at 10 µM,NA-uptake,86%
COc1cc(CN2CCN(C(=O)CCCC(=O)NC3CCC(Cc4ccccc4)(N(C)C)CC3)CC2)cc2c1OCO2 (centres unmarked) [Example 54],"5HT-uptake [10 μM], % inhibition",5HT-uptake,95%
same,"NA-uptake [10 μM], % inhibition",NA-uptake,90%
"C=CCN(C)C(=O)CCC(=O)NC1CCC(Cc2cccc(Cl)c2)(N(C)C)CC1 (centres unmarked) [Example 43, N-allyl-N′-[4-(3-chloro-benzyl)-4-dimethylamino-cyclohexyl]-N-methyl-succinamide]",inhibition at 10 µM,5HT-uptake,98%
same,inhibition at 10 µM,NA-uptake,96%
"Cc1ccc(CC2(N(C)C)CCC(NC(=O)CCC(=O)N3CCN(c4ccccn4)CC3)CC2)cc1 (centres unmarked) [Example 21, N-[4-dimethylamino-4-(4-methyl-benzyl)-cyclohexyl]-4-oxo-4-(4-pyridin-2-yl-piperazin-1-yl)-butyramide]",inhibition at 10 µM,5HT-uptake,95%
same,inhibition at 10 µM,NA-uptake,83%
"CN(C)C1(Cc2ccc(Cl)cc2)CCC(NC(=O)CCC(=O)N2CC=C(c3ccc(F)cc3)CC2)CC1 (centres unmarked) [Example 104, N-[4-(4-chloro-benzyl)-4-dimethylamino-cyclohexyl]-4-[4-(4-fluoro-phenyl)-3,6-dihydro-2H-pyridin-1-yl]-4-oxo-butyramide]",inhibition at 10 µM,5HT-uptake,93%
same,inhibition at 10 µM,NA-uptake,84%
"COC(=O)C(Cc1ccc(Cl)cc1)NC(=O)CCC(=O)NC1CCC(Cc2ccc(C)cc2)(N(C)C)CC1 (centres unmarked) [Example 32, 3-(4-chloro-phenyl)-2-{3-[4-dimethylamino-4-(4-methyl-benzyl)-cyclohexylcarbamoyl]-propionylamino}-propanoic acid methylester]",inhibition at 10 µM,5HT-uptake,99%
same,inhibition at 10 µM,NA-uptake,97%
"COc1ccc(CCN(C)C(=O)CCC(=O)NC2CCC(Cc3cccc(C)c3)(N(C)C)CC2)cc1OC (centres unmarked) [Example 71, N-[2-(3,4-dimethoxy-phenyl)-ethyl]-N′-[4-dimethylamino-4-(3-methyl-benzyl)-cyclohexyl]-N-methyl-succinamide]",inhibition at 10 µM,5HT-uptake,92%
same,inhibition at 10 µM,NA-uptake,94%
"CN(CCc1c[nH]c2ccccc12)C(=O)CCC(=O)NC1CCC(Cc2cccc(Cl)c2)(N(C)C)CC1 (centres unmarked) [Example 53, N-[4-(3-chloro-benzyl)-4-dimethylamino-cyclohexyl]-N′-[2-(1H-indol-3-yl)-ethyl]-N′-methyl-succinamide]",inhibition at 10 µM,5HT-uptake,93%
same,inhibition at 10 µM,NA-uptake,94%
"COCCCNC(=O)CCC(=O)NC1CCC(Cc2ccc(Cl)cc2)(N(C)C)CC1 (centres unmarked) [Example 26, N-[4-(4-chloro-benzyl)-4-dimethylamino-cyclohexyl]-N′-(3-methoxy-propyl)-succinamide]",inhibition at 10 µM,5HT-uptake,93%
same,inhibition at 10 µM,NA-uptake,79%
"CN(C)C1(Cc2ccc(Cl)cc2)CCC(NC(=O)CCC(=O)NCCC(c2ccccc2)c2ccccc2)CC1 (centres unmarked) [Example 3, N-[4-(4-chloro-benzyl)-4-dimethylamino-cyclohexyl]-N′-(3,3-diphenyl-propyl)-succinamide]",inhibition at 10 µM,5HT-uptake,94%
same,inhibition at 10 µM,NA-uptake,89%
"C=CCN(C)C(=O)CCC(=O)NC1CCC(Cc2ccc(Cl)cc2)(N(C)C)CC1 (centres unmarked) [Example 17, N-allyl-N′-[4-(4-chloro-benzyl)-4-dimethylamino-cyclohexyl]-N-methyl-succinamide]",inhibition at 10 µM,5HT-uptake,93%
same,inhibition at 10 µM,NA-uptake,82%
"CCOP(=O)(Cc1ccc(NC(=O)CCC(=O)NC2CCC(Cc3cccc(Cl)c3)(N(C)C)CC2)cc1)OCC (centres unmarked) [Example 37, (4-{3-[4-(3-chloro-benzyl)-4-dimethylamino-cyclohexylcarbamoyl]-propionylamino}-benzyl)-phosphonic acid diethylester]",inhibition at 10 µM,5HT-uptake,95%
same,inhibition at 10 µM,NA-uptake,100%
"CN(C)C1(Cc2ccc(Cl)cc2)CCC(NC(=O)CCC(=O)NCCc2c[nH]c3ccccc23)CC1 (centres unmarked) [Example 52, N-[4-(4-chloro-benzyl)-4-dimethylamino-cyclohexyl]-N′-[2-(1H-indol-3-yl)-ethyl]-succinamide]",inhibition at 10 µM,5HT-uptake,96%
same,inhibition at 10 µM,NA-uptake,88%
"CN(C)C1(Cc2cccc(Cl)c2)CCC(NC(=O)CCC(=O)NCCc2ccccn2)CC1 (centres unmarked) [Example 12, N-[4-(3-chloro-benzyl)-4-dimethylamino-cyclohexyl]-N′-(2-pyridin-2-yl-ethyl)-succinamide]",inhibition at 10 µM,5HT-uptake,92%
same,inhibition at 10 µM,NA-uptake,95%
"CCOc1ccc(N2CCN(C(=O)CCC(=O)NC3CCC(Cc4ccc(Cl)cc4)(N(C)C)CC3)CC2)cc1 (centres unmarked) [Example 16, N-[4-(4-chloro-benzyl)-4-dimethylamino-cyclohexyl]-4-[4-(4-ethoxy-phenyl)-piperazin-1-yl]-4-oxo-butyramide]",inhibition at 10 µM,5HT-uptake,97%
same,inhibition at 10 µM,NA-uptake,86%
"Cc1ccc(CC2(N(C)C)CCC(NC(=O)CCC(=O)N3CCN(c4ccc(Cl)cc4)CC3)CC2)cc1 (centres unmarked) [Example 96, 4-[4-(4-chloro-phenyl)-piperazin-1-yl]-N-[4-dimethylamino-4-(4-methyl-benzyl)-cyclohexyl]-4-oxo-butyramide]",inhibition at 10 µM,5HT-uptake,94%
same,inhibition at 10 µM,NA-uptake,87%
"CCOc1ccccc1CNC(=O)CCC(=O)NC1CCC(Cc2ccc(C)cc2)(N(C)C)CC1 (centres unmarked) [Example 138, N-[4-dimethylamino-4-(4-methyl-benzyl)-cyclohexyl]-N′-(2-ethoxy-benzyl)-succinamide]",inhibition at 10 µM,5HT-uptake,92%
same,inhibition at 10 µM,NA-uptake,84%
"Cc1ccc(CC2(N(C)C)CCC(NC(=O)CCC(=O)N(C)CCc3ccccn3)CC2)cc1 (centres unmarked) [Example 38, N-[4-dimethylamino-4-(4-methyl-benzyl)-cyclohexyl]-N′-methyl-N′-(2-pyridin-2-yl-ethyl)-succinamide]",inhibition at 10 µM,5HT-uptake,95%
same,inhibition at 10 µM,NA-uptake,79%
"CN(C)C1(Cc2ccc(Cl)cc2)CCC(NC(=O)CCC(=O)N2CCSCC2)CC1 (centres unmarked) [Example 13, N-[4-(4-chloro-benzyl)-4-dimethylamino-cyclohexyl]-4-oxo-4-thiomorpholin-4-yl-butyramide]",inhibition at 10 µM,5HT-uptake,92%
same,inhibition at 10 µM,NA-uptake,72%
"CCOP(=O)(Cc1ccc(NC(=O)CCC(=O)NC2CCC(Cc3cccc(C)c3)(N(C)C)CC2)cc1)OCC (centres unmarked) [Example 46, (4-{3-[4-dimethylamino-4-(3-methyl-benzyl)-cyclohexylcarbamoyl]-propionylamino}-benzyl)-phosphonic acid diethylester]",inhibition at 10 µM,5HT-uptake,92%
same,inhibition at 10 µM,NA-uptake,89%
"Cc1ccc(CC2(N(C)C)CCC(NC(=O)CCC(=O)N3CCC(CNC(=O)C(F)(F)F)CC3)CC2)cc1 (centres unmarked) [Example 51, N-[4-dimethylamino-4-(4-methyl-benzyl)-cyclohexyl]-4-oxo-4-{4-[(2,2,2-trifluoro-acetylamino)-methyl]-piperidin-1-yl}-butyramide]",inhibition at 10 µM,5HT-uptake,92%
same,inhibition at 10 µM,NA-uptake,77%
